Test results reported in ChEMBL document CHEMBL5042529, “One-Pot Enzymatic Synthesis and Biological Evaluation of Ganglioside GM3 Derivatives as Potential Cancer Immunotherapeutics” (J Med Chem, 2022).

Tests used:
[1] = Cytotoxicity against rat PC-12 cells measured after 24 hrs by MTT assay; format: toxicity, cell-based
[2] = Cytotoxicity against human A-431 cells measured after 24 hrs by MTT assay; format: toxicity, cell-based
[3] = Cytotoxicity against mouse Neuro2a cells measured after 24 hrs by MTT assay; format: toxicity, cell-based, N2a
[4] = Cytotoxicity against CHO cells measured after 24 hrs by MTT assay; format: toxicity, cell-based, Cricetulus griseus; settings: Chinese hamster
[5] = Cytotoxicity against human HeLa cells measured after 24 hrs by MTT assay; format: toxicity, cell-based

Measured: IC50 at 24 h

CCCCCCCCCCCCC/C=C/[C@@H](O)[C@H](CO[C@@H]1O[C@H](CO)[C@@H](O[C@@H]2O[C@H](CO)[C@H](O)[C@H](O[C@]3(C(=O)O)C[C@H](O)[C@@H](NC(=O)c4ccccc4)[C@H]([C@H](O)[C@H](O)CO)O3)[C@H]2O)[C@H](O)[C@H]1O)NC(=O)CCCCCCCCCCCCCCCCC
> 200 µM: all assays above

CCCCCCCCCCCCC/C=C/[C@@H](O)[C@H](CO[C@@H]1O[C@H](CO)[C@@H](O[C@@H]2O[C@H](CO)[C@H](O)[C@H](O[C@]3(C(=O)O)C[C@H](O)[C@@H](NC(=O)c4cc(C)cc(C)c4)[C@H]([C@H](O)[C@H](O)CO)O3)[C@H]2O)[C@H](O)[C@H]1O)NC(=O)CCCCCCCCCCCCCCCCC
> 200 µM: all assays above

CCCCCCCCCCCCC/C=C/[C@@H](O)[C@H](CO[C@@H]1O[C@H](CO)[C@@H](O[C@@H]2O[C@H](CO)[C@H](O)[C@H](O[C@]3(C(=O)O)C[C@H](O)[C@@H](NC(=O)c4ccc(F)cc4)[C@H]([C@H](O)[C@H](O)CO)O3)[C@H]2O)[C@H](O)[C@H]1O)NC(=O)CCCCCCCCCCCCCCCCC
> 200 µM: all assays above

CCCCCCCCCCCCC/C=C/[C@@H](O)[C@H](CO[C@@H]1O[C@H](CO)[C@@H](O[C@@H]2O[C@H](CO)[C@H](O)[C@H](O[C@]3(C(=O)O)C[C@H](O)[C@@H](NC(=O)c4cc(F)cc(F)c4)[C@H]([C@H](O)[C@H](O)CO)O3)[C@H]2O)[C@H](O)[C@H]1O)NC(=O)CCCCCCCCCCCCCCCCC
> 200 µM: all assays above

CCCCCCCCCCCCC/C=C/[C@@H](O)[C@H](CO[C@@H]1O[C@H](CO)[C@@H](O[C@@H]2O[C@H](CO)[C@H](O)[C@H](O[C@]3(C(=O)O)C[C@H](O)[C@@H](NC(=O)Cc4ccc(C)cc4)[C@H]([C@H](O)[C@H](O)CO)O3)[C@H]2O)[C@H](O)[C@H]1O)NC(=O)CCCCCCCCCCCCCCCCC
> 200 µM: all assays above

CCCCCCCCCCCCC/C=C/[C@@H](O)[C@H](CO[C@@H]1O[C@H](CO)[C@@H](O[C@@H]2O[C@H](CO)[C@H](O)[C@H](O[C@]3(C(=O)O)C[C@H](O)[C@@H](NC(C)=O)[C@H]([C@H](O)[C@H](O)CO)O3)[C@H]2O)[C@H](O)[C@H]1O)NC(=O)CCCCCCCCCC
> 200 µM: all assays above

CCCCCCCCCCCCC/C=C/[C@@H](O)[C@H](CO[C@@H]1O[C@H](CO)[C@@H](O[C@@H]2O[C@H](CO)[C@H](O)[C@H](O[C@]3(C(=O)O)C[C@H](O)[C@@H](NC(=O)c4ccc(I)cc4)[C@H]([C@H](O)[C@H](O)CO)O3)[C@H]2O)[C@H](O)[C@H]1O)NC(=O)CCCCCCCCCCCCCCCCC
> 200 µM: all assays above

CCCCCCCCCCCCC/C=C/[C@@H](O)[C@H](CO[C@@H]1O[C@H](CO)[C@@H](O[C@@H]2O[C@H](CO)[C@H](O)[C@H](O[C@]3(C(=O)O)C[C@H](O)[C@@H](NC(=O)c4cccc([N+](=O)[O-])c4)[C@H]([C@H](O)[C@H](O)CO)O3)[C@H]2O)[C@H](O)[C@H]1O)NC(=O)CCCCCCCCCCCCCCCCC
> 200 µM: all assays above
